Test results: PMC12974487, “Inhibition of FicD-mediated AMPylation and deAMPylation by isoprenoid diphosphates” (Proceedings of the National Academy of Sciences of the …, 2026)
“Also recorded” adds a separate entry of the source.

Molecular target: T1, FicD^R374C (Homo sapiens, UniProt Q9BVA6, R374C)
T1 construct: Wild-type FicD (residues 105-458) and all mutants were expressed as N-terminal 6xHis-Sumo fusions; 6xHis-Sumo (N, cleaved yes); made in house; host or cells: Rosetta(DE3) E. coli
T1 sequence (Q9BVA6 105-458 R374C): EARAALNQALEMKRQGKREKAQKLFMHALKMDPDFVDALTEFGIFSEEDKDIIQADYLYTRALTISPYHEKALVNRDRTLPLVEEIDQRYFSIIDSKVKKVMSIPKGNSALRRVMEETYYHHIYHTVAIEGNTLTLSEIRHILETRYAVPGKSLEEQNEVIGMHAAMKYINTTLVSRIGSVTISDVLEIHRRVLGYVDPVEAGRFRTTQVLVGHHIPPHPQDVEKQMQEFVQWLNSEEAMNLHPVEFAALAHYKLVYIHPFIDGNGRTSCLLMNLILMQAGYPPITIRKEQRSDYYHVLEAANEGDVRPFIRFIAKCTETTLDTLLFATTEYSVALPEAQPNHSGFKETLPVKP
Assay: AMPylation of Δ26hBiP^T229A by pathogenic variant FicD^R374C
Format: biochemical
Settings: indicated concentrations of FPP
From the text: Fig. 5. Crystal structure of FPP inhibitor bound to FicD active site. […] FPP (cyan stick) and Mg^2+ (cyan sphere) in the pocket of FicD shown as APBS electrostatic surface with positive areas in blue, negative in red, and neutral in white (contour level: ±5 kBT/e) (Right). […] (C–E) AMPylation assays of Δ26hBiP^T229A in the presence of the indicated concentration of FPP using the pathogenic human variants (C) FicD^R371S, (D) FicD^R374H and (E) FicD^R374C. AMPylated BiP and Fic were quantified by immunodetection, and total BiP was quantified by CBB. […]
Isothermal Titration Calorimetry
Proteins were dialyzed against 25mM HEPES pH 7.4/100mM KCl/10% glycerol prior to titration. […]
MgCl2 was added to […]
proteins to a final concentration of 4mM. ITC experiments were performed in a Micro-Cal PEAQ-ITC (Malvern Panalytical, Worcestershire, UK) calorimeter with a stirred 206.2 μL reaction cell held at 20 °C. 250μM FPP was titrated into 25uM Δ104hFicL258D with 750rpm stirring. The first injection was 0.5 μL, followed by twenty 1.9 μL injections. […]
Thermogram and binding figures were plotted in
For AMPylation assays with FicD and BiP, Δ104FicDWT and Δ26hBiPT229A were combined at a ratio of 1:80 in buffer containing 25mM HEPES pH 7.4, 100mM KCl, 5mM MgCl2, 500μM ATP, 1mM DTT, and small molecule where indicated. Assays with Δ104FicDWT were incubated for 1 hour. […]

With CC(C)=CCC/C(C)=C/CC/C(C)=C/COP(=O)(O)OP(=O)(O)O [FPP, farnesyl-pyrophosphate] the “FPP inhibition of FicD^R374C mediated AMPylation” value was “inhibition; also recorded: inhibited”.
